# What was measured:
# human CB2 receptors = human CB2 receptors (Homo sapiens (Human), UniProt P34972); test: human CB2 radioligand binding assay ([3H]CP 55,940 competition); settings: HEK293 membranes, 0.5 nM [3H]CP 55,940
# Protocol: HEK293 cells stably expressing human CB2 receptors were grown until a confluent monolayer was formed. Briefly, the cells were harvested and homogenized in TE buffer (50 mM Tris-HCl, 1 mM MgCl2, and 1 mM EDTA) using a polytron for 2×10 second bursts in the presence of protease inhibitors, followed by centrifugation at 45,000×g for 20 minutes. The final membrane pellet was re-homogenized in storage buffer (50 mM Tris-HCl, 1 mM MgCl2, and 1 mM EDTA and 10% sucrose) and frozen at −78° C. until used. Saturation binding reactions were initiated by the addition of membrane preparation (protein concentration of 5 μg/well for human CB2) into wells of a deep well plate containing [^3H]CP 55,940 (120 Ci/mmol, a nonselective CB agonist commercially available from Tocris) in assay buffer (50 mM Tris, 2.5 mM EDTA, 5 mM MgCl2, and 0.5 mg/mL fatty acid free BSA, pH 7.4). After 90 min incubation at 30° C., binding reaction was terminated by the addition of 300 μL/well of cold assay buffer followed by rapid vacuum filtration through a UniFilter-96 GF/C filter plates (pre-soaked in 1 mg/mL BSA for 2 hours). The bound activity was counted in a TopCount using Microscint-20. Saturation experiments were conducted with twelve concentrations of [^3H]CP 55,940 ranging from 0.01 to 8 nM. Competition experiments were conducted with 0.5 nM [^3H]CP 55,940 and five concentrations (0.01 nM to 10 μM) of displacing ligands. The addition of 10 μM unlabeled CP 55,940 (Tocris, Ellisville, Mo.) was used to assess nonspecific binding.
# rat CB2 receptors = rat CB2 receptors (Rattus norvegicus (Rat), UniProt Q9QZN9); test: rat CB2 radioligand binding assay ([3H]CP 55,940 competition); settings: HEK293 membranes, 0.5 nM [3H]CP 55,940
# rat CB2 receptors, sequence (Q9QZN9 whole entry): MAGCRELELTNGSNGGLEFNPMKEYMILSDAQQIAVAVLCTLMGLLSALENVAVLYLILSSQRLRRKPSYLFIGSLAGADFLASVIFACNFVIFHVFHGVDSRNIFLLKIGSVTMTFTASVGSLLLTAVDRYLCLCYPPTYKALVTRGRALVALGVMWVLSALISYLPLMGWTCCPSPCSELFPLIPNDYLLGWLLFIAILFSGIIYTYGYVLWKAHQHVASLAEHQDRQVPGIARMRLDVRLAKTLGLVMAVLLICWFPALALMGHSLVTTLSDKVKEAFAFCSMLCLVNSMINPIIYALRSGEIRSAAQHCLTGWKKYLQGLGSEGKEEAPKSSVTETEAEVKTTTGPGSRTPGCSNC
# Protocol: HEK293 cells stably expressing rat CB2 receptors were grown until a confluent monolayer was formed. Briefly, the cells were harvested and homogenized in TE buffer (50 mM Tris-HCl, 1 mM MgCl2, and 1 mM EDTA) using a polytron for 2×10 second bursts in the presence of protease inhibitors, followed by centrifugation at 45,000×g for 20 minutes. The final membrane pellet was re-homogenized in storage buffer (50 mM Tris-HCl, 1 mM MgCl2, and 1 mM EDTA and 10% sucrose) and frozen at −78° C. until used. Saturation binding reactions were initiated by the addition of membrane preparation (protein concentration of 20 μg/well for rat CB2) into wells of a deep well plate containing [^3H]CP 55,940 (120 Ci/mmol, a nonselective CB agonist commercially available from Tocris) in assay buffer (50 mM Tris, 2.5 mM EDTA, 5 mM MgCl2, and 0.5 mg/mL fatty acid free BSA, pH 7.4). After 45 min incubation at 30° C., binding reaction was terminated by the addition of 300 μl/well of cold assay buffer followed by rapid vacuum filtration through a UniFilter-96 GF/C filter plates (pre-soaked in 1 mg/mL BSA for 2 hours). The bound activity was counted in a TopCount using Microscint-20. Saturation experiments were conducted with twelve concentrations of [^3H]CP 55,940 ranging from 0.01 to 8 nM. Competition experiments were conducted with 0.5 nM [^3H]CP 55,940 and five concentrations of displacing ligands selected from the range of 0.01 nM to 10 μM. The addition of 10 μM unlabeled CP 55,940 (Tocris, Ellisville, Mo.) was used to assess nonspecific binding.
# human CB2 receptors, sequence (P34972 whole entry): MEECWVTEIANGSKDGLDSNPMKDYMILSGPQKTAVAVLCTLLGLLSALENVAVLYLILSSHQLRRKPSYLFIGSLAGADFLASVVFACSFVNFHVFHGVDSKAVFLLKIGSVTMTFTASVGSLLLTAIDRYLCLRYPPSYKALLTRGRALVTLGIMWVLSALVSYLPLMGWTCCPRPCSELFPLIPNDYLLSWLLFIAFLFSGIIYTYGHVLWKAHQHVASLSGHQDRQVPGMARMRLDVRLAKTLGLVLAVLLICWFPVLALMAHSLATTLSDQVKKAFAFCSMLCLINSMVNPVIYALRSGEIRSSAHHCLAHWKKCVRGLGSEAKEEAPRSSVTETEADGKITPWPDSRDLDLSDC
smiles,measurement,setting,value
"CC(C)Cn1cc(C(C)(C)C)s/c1=N\C(=O)c1cc(C(F)(F)F)ccc1OCCn1ccnc1 [Example 6, N-[(2Z)-5-tert-butyl-3-isobutyl-1,3-thiazol-2(3H)-ylidene]-2-[2-(1H-imidazol-1-yl)ethoxy]-5-(trifluoromethyl)benzamide]",Ki,human CB2 receptors,96 nM
same,Ki,rat CB2 receptors,39 nM
"CC(C)Cn1cc(C(C)(C)C)s/c1=N\C(=O)c1ccccc1OC[C@@H]1CCCN1C [Example 10, N-[(2Z)-5-tert-butyl-3-isobutyl-1,3-thiazol-2(3H)-ylidene]-2-{[(2S)-1-methylpyrrolidin-2-yl]methoxy}benzamide]",Ki,human CB2 receptors,296 nM
same,Ki,rat CB2 receptors,243 nM
"CC(C)Cn1cc(C(C)(C)C)s/c1=N\C(=O)c1cc(C(F)(F)F)ccc1O[C@H]1CCN(C)C1 [Example 13, N-[(2Z)-5-tert-butyl-3-isobutyl-1,3-thiazol-2(3H)-ylidene]-2-{[(3S)-1-methylpyrrolidin-3-yl]oxy}-5-(trifluoromethyl)benzamide]",Ki,human CB2 receptors,111 nM
same,Ki,rat CB2 receptors,81 nM
"CC(C)Cn1cc(C(C)(C)C)s/c1=N\C(=O)c1cc(Cl)ccc1OC1CC1 [Example 15, N-[(2Z)-5-tert-butyl-3-isobutyl-1,3-thiazol-2(3H)-ylidene]-5-chloro-2-(cyclopropyloxy)benzamide]",Ki,human CB2 receptors,9.9 nM
same,Ki,rat CB2 receptors,1.1 nM
"CC(C)Cn1cc(C(C)(C)C)s/c1=N\C(=O)c1cc(C#N)ccc1OC1CCC1 [Example 16, N-[(2Z)-5-tert-butyl-3-isobutyl-1,3-thiazol-2(3H)-ylidene]-5-cyano-2-(cyclobutyloxy)benzamide]",Ki,human CB2 receptors,96 nM
same,Ki,rat CB2 receptors,5.2 nM
"CC(C)(C)c1cn(CCC(F)(F)F)/c(=N/C(=O)c2cc(C#N)ccc2OC2CCC2)s1 [Example 17, N-[(2Z)-5-tert-butyl-3-(3,3,3-trifluoropropyl)-1,3-thiazol-2(3H)-ylidene]-5-cyano-2-(cyclobutyloxy)benzamide]",Ki,human CB2 receptors,53 nM
same,Ki,rat CB2 receptors,1.1 nM
"CCCCn1/c(=N/C(=O)c2cc(C(F)(F)F)ccc2OCCC(C)(C)O)sc2ccncc21 [Example 20, N-[(2Z)-3-butyl[1,3]thiazolo[4,5-c]pyridin-2(3H)-ylidene]-2-(3-hydroxy-3-methylbutoxy)-5-(trifluoromethyl)benzamide]",Ki,human CB2 receptors,35 nM
same,Ki,rat CB2 receptors,48 nM
"CCCCn1/c(=N/C(=O)c2cc(C(F)(F)F)ccc2ONC(C)(C)C)sc2ccncc21 [Example 22, 2-[(tert-butylamino)oxy]-N-[(2Z)-3-butyl[1,3]thiazolo[4,5-c]pyridin-2(3H)-ylidene]-5-(trifluoromethyl)benzamide]",Ki,human CB2 receptors,62 nM
same,Ki,rat CB2 receptors,73 nM
"CCCCn1cc(C(C)(C)C)s/c1=N\C(=O)c1cc(C(F)(F)F)ccc1ONC(C)(C)C [Example 23, 2-[(tert-butylamino)oxy]-N-[(2Z)-3-butyl-5-tert-butyl-1,3-thiazol-2(3H)-ylidene]-5-(trifluoromethyl)benzamide]",Ki,human CB2 receptors,6.7 nM
same,Ki,rat CB2 receptors,0.95 nM
"Cc1s/c(=N\C(=O)c2cc(C(F)(F)F)ccc2OC[C@@H]2CCCN2C)n(CC2CC2)c1C [Example 24, N-[(2Z)-3-(cyclopropylmethyl)-4,5-dimethyl-1,3-thiazol-2(3H)-ylidene]-2-{[(2S)-1-methylpyrrolidin-2-yl]methoxy}-5-(trifluoromethyl)benzamide]",Ki,human CB2 receptors,30 nM
same,Ki,rat CB2 receptors,35 nM
"CC(C)(O)COc1ccc(C(F)(F)F)cc1C(=O)/N=c1\sc2ccncc2n1CC1CCC1 [Example 26, N-[(2Z)-3-(cyclobutylmethyl)[1,3]thiazolo[4,5-c]pyridin-2(3H)-ylidene]-2-(2-hydroxy-2-methylpropoxy)-5-(trifluoromethyl)benzamide]",Ki,human CB2 receptors,2.5 nM
same,Ki,rat CB2 receptors,7.4 nM
"CC(C)(O)COc1ccc(C(F)(F)F)cc1C(=O)/N=c1\sc2ccncc2n1CCCC(F)(F)F [Example 27, 2-(2-hydroxy-2-methylpropoxy)-N-[(2Z)-3-(4,4,4-trifluorobutyl)[1,3]thiazolo[4,5-c]pyridin-2(3H)-ylidene]-5-(trifluoromethyl)benzamide]",Ki,human CB2 receptors,8.4 nM
same,Ki,rat CB2 receptors,10 nM
"CCCCn1/c(=N/C(=O)c2cc(C(F)(F)F)ccc2OC[C@@H](C)O)sc2ccncc21 [Example 28, N-[(2Z)-3-butyl[1,3]thiazolo[4,5-c]pyridin-2(3H)-ylidene]-2-{[(2R)-2-hydroxypropyl]oxy}-5-(trifluoromethyl)benzamide]",Ki,human CB2 receptors,75 nM
same,Ki,rat CB2 receptors,63 nM
"C#CCCn1cc(C(C)(C)C)s/c1=N\C(=O)c1cc(C(F)(F)F)ccc1ONC(C)(C)C [Example 30, 2-[(tert-butylamino)oxy]-N-[(2Z)-5-tert-butyl-3-but-3-ynyl-1,3-thiazol-2(3H)-ylidene]-5-(trifluoromethyl)benzamide]",Ki,human CB2 receptors,15 nM
same,Ki,rat CB2 receptors,0.75 nM
"C=C=CCn1cc(C(C)(C)C)s/c1=N\C(=O)c1cc(C(F)(F)F)ccc1ONC(C)(C)C [Example 31, N-[(2Z)-3-buta-2,3-dienyl-5-tert-butyl-1,3-thiazol-2(3H)-ylidene]-2-[(tert-butylamino)oxy]-5-(trifluoromethyl)benzamide]",Ki,human CB2 receptors,17 nM
same,Ki,rat CB2 receptors,1.7 nM
"CCCCn1cc(C(C)(C)C)s/c1=N\C(=O)c1cc(C(F)(F)F)ccc1OCC(C)(C)O [Example 32, N-[(2Z)-3-butyl-5-tert-butyl-1,3-thiazol-2(3H)-ylidene]-2-(2-hydroxy-2-methylpropoxy)-5-(trifluoromethyl)benzamide]",Ki,human CB2 receptors,0.82 nM
same,Ki,rat CB2 receptors,1.2 nM
"CCCCn1/c(=N/C(=O)c2cc(C(F)(F)F)ccc2OC[C@@H]2CCCN2C)sc2ccncc21 [Example 33, N-[(2Z)-3-butyl[1,3]thiazolo[4,5-c]pyridin-2(3H)-ylidene]-2-{[(2S)-1-methylpyrrolidin-2-yl]methoxy}-5-(trifluoromethyl)benzamide]",Ki,human CB2 receptors,34 nM
same,Ki,rat CB2 receptors,35 nM
CCCCn1c(C(=O)OC)c(C(C)C)s/c1=N\C(=O)c1cc(C(F)(F)F)ccc1ONC(C)(C)C [Example 34],Ki,human CB2 receptors,129 nM
same,Ki,rat CB2 receptors,48 nM
"CCCCn1/c(=N/C(=O)c2cc(C(F)(F)F)ccc2OCC(C)(C)O)sc2ncccc21 [Example 35, N-[(2Z)-1-butyl[1,3]thiazolo[5,4-b]pyridin-2(1H)-ylidene]-2-(2-hydroxy-2-methylpropoxy)-5-(trifluoromethyl)benzamide]",Ki,human CB2 receptors,15 nM
same,Ki,rat CB2 receptors,28 nM
"CCCCn1/c(=N/C(=O)c2cc(C(F)(F)F)ccc2OC[C@H](C)O)sc2ncccc21 [Example 36, N-[(2Z)-1-butyl[1,3]thiazolo[5,4-b]pyridin-2(1H)-ylidene]-2-{[(2S)-2-hydroxypropyl]oxy}-5-(trifluoromethyl)benzamide]",Ki,human CB2 receptors,1.4 nM
same,Ki,rat CB2 receptors,2.1 nM
"CCCCn1cc(C(C)(C)C)s/c1=N\C(=O)c1cc(C(F)(F)F)ccc1NNC(=O)c1cccnc1 [Example 37, N-[(2Z)-3-butyl-5-tert-butyl-1,3-thiazol-2(3H)-ylidene]-2-[2-(pyridin-3-ylcarbonyl)hydrazino]-5-(trifluoromethyl)benzamide]",Ki,human CB2 receptors,1.6 nM
same,Ki,rat CB2 receptors,0.77 nM
"CCCCn1cc(C(C)(C)C)s/c1=N\C(=O)c1cc(C(F)(F)F)ccc1NNC(=O)c1ccncc1 [Example 38, N-[(2Z)-3-butyl-5-tert-butyl-1,3-thiazol-2(3H)-ylidene]-2-(2-isonicotinoylhydrazino)-5-(trifluoromethyl)benzamide]",Ki,human CB2 receptors,1.1 nM
same,Ki,rat CB2 receptors,2.3 nM

# — patent US8895592B2, “Compounds as cannabinoid receptor ligands” (priority 2008, dated 2014)
